Data taken from PMC6802093, “Structural characterization of HypX responsible for CO biosynthesis in the maturation of NiFe-hydrogenase” (Communications Biology, 2019).
One block for each compound: values may come before it.

Experiments:
[1] = target: HypC/HypD complex (A. aeolicus) (Aquifex aeolicus) (UniProt O67225); assay: SEC; Superdex200 10/300GL, 50 mM Tris-HCl (pH 8.0), 200 mM NaCl, 1 mM DTT; HypC, HypD and HypX mixed in equal molar amount; apparent mass
HypX [2] = target: T1, HypX (Aquifex aeolicus, UniProt O67224); assay: X-ray crystallography; native MS; type: binding; conditions: co-purified from E. coli, none added; non-covalent; folded conformation, C-terminal part of cavity; also Form II crystal 6J1E
T1 construct: gene hoxX; residues up to 562 described; acid-denatured mass 67,531 Da; monomer; N-terminal domain 1-270, C-terminal domain 289-542

HypX [3] = target: T2, HypX (Aquifex aeolicus, UniProt O67224, Q15A/R131A/S194A/Q195A/N306A/R542A); assay: native MS; type: binding; conditions: non-denaturing, 500 mM ammonium acetate pH 6.8; co-purified from E. coli; CoA absent in crystal structure 6J1H
T2 construct: gene hoxX; residues up to 562 described; acid-denatured mass 67,531 Da; monomer; N-terminal domain 1-270, C-terminal domain 289-542

HypX [4] = target: T3, HypX (Aquifex aeolicus, UniProt O67224, R9A/Q15A/R131A/R542A); assay: X-ray crystallography; type: binding; conditions: co-purified from E. coli; folded conformation
T3 construct: gene hoxX; residues up to 562 described; acid-denatured mass 67,531 Da; monomer; N-terminal domain 1-270, C-terminal domain 289-542

HypX [5] = target: T4, HypX (Aquifex aeolicus, UniProt O67224, A392F/I419F); assay: X-ray crystallography; type: binding; conditions: co-purified from E. coli; extended conformation, without THF (THF-bound structure 6J1J also holds CoA)
T4 construct: gene hoxX; residues up to 562 described; acid-denatured mass 67,531 Da; monomer; N-terminal domain 1-270, C-terminal domain 289-542

[6] = target: A. aeolicus HypC (Aquifex aeolicus); assay: SEC; Superdex75 10/300GL, 50 mM Tris-HCl (pH 8.0), 200 mM NaCl, 1 mM DTT; HypC alone, HypD alone, and HypC and HypD mixed in equal molar amount; apparent masses
HypX [7] = target: T1, HypX; assay: X-ray crystallography, crystal soaking; type: binding; conditions: Form I crystals soaked with THF; N-terminal domain, chain A only
HypX [8] = target: T4, HypX; assay: X-ray crystallography, crystal soaking; type: binding; conditions: CoA also bound, extended conformation; N-terminal region of cavity

T4 sequence (O67224 entry or part of it A392F/I419F): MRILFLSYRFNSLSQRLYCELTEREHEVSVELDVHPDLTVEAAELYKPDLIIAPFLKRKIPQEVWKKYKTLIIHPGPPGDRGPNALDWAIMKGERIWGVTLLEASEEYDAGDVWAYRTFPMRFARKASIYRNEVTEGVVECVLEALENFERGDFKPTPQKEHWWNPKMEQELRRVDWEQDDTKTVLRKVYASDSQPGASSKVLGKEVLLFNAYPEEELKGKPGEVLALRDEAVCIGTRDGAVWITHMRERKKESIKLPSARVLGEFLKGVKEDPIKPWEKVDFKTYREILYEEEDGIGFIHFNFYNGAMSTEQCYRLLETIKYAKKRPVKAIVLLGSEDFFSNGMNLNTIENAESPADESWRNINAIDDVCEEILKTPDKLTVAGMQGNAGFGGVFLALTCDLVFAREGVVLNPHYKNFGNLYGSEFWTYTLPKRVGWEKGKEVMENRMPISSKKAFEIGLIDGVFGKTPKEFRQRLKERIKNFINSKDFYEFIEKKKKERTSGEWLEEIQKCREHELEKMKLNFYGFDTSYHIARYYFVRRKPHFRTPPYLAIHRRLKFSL
T1 sequence (O67224 entry or part of it): as the sequence (O67224 entry or part of it A392F/I419F) above, with F392A, F419I counted along it
T3 sequence (O67224 entry or part of it R9A/Q15A/R131A/R542A): as the sequence (O67224 entry or part of it A392F/I419F) above, with R9A, Q15A, R131A, F392A, F419I, R542A counted along it
T2 sequence (O67224 entry or part of it Q15A/R131A/S194A/Q195A/N306A/R542A): as the sequence (O67224 entry or part of it A392F/I419F) above, with Q15A, R131A, S194A, Q195A, N306A, F392A, F419I, R542A counted along it

- stoichiometry N [1]: 1
Compound: HypX from Aquifex aeolicus (enzyme)

Compound: CC(C)(COP(=O)(O)OP(=O)(O)OC[C@H]1O[C@@H](n2cnc3c(N)ncnc32)[C@H](O)[C@@H]1OP(=O)(O)O)[C@@H](O)C(=O)NCCC(=O)NCCS [CoA]
- X-ray crystallography; native MS (HypX [2]): HypX binds CoA constitutively with a high binding affinity
- native MS (HypX [3]): showed two MS peaks due to apo (CoA-free) and holo (CoA-bound) form
- X-ray crystallography (HypX [4]): this variant binds CoA with the folded conformation as is the case of wild-type
- X-ray crystallography (HypX [5]): CoA is able to adopt the extended conformation in the A392F-I419F variant

- stoichiometry N [6]: 2
Compound: A. aeolicus HypC (natural protein)

Compound: Nc1nc2c(c(=O)[nH]1)N[C@@H](CNc1ccc(C(=O)N[C@@H](CCC(=O)O)C(=O)O)cc1)CN2 [THF]
- X-ray crystallography, crystal soaking (HypX [7]): We obtained HypX-THF complex by soaking Form I HypX crystals with THF
- X-ray crystallography, crystal soaking (HypX [8]): THF is bound at the N-terminal region of the cavity at the same position
